Patent publication US20240116912A1, “COMPOUNDS AND METHODS FOR MODULATING FXR” (Terns Pharmaceuticals, Inc., priority 2020, published 2024)
Where “and” joins values, the source holds several entries; their conditions need not be identical. Equal entries are not always repeated.

What was measured:
[1] = biological target: full length human FXR protein (Homo sapiens (Human), UniProt Q96RI1); assay: FXR cellular assay (FXR-SRCP β-gal enzyme fragment complementation in CHO-K1 cells, chemiluminescence); type: cell-based; conditions: CHO-K1 cells with SRCP-EA and ProLink-labeled FXR, 0-10 micromolar compound, 37° C. for 6h, read-out: EC50 FXR-cell Luminescence/
full length human FXR protein, sequence (Q96RI1 whole entry, the tested form may be a part): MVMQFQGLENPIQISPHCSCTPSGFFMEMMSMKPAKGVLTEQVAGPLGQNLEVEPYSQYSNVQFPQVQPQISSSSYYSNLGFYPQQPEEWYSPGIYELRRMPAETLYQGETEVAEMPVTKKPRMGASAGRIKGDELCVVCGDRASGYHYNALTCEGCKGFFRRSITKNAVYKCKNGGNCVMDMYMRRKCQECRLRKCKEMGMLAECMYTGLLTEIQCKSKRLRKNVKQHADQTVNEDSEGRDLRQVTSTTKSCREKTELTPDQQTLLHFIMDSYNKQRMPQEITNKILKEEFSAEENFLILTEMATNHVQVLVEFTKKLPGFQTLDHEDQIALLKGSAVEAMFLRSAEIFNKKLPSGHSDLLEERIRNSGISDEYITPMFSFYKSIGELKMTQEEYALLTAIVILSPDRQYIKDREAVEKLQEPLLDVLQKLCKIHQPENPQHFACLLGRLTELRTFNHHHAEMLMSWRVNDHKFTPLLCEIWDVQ
Summary of the method: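 CHO-K1 cells stably expressing ProLink-tagged full-length FXR and SRCP-EA treated with compound (0-10 micromolar, 1% DMSO) for 6 h at 37 °C. Ligand-driven FXR-coactivator binding reconstitutes β-gal; chemiluminescence read after 1 h detection reagent at room temperature.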

[2] = biological target: ligand binding domain (LBD) of recombinant human FXR (Homo sapiens (Human), UniProt Q96RI1); assay: FXR cell free coactivator (SRC-1) recruitment assay, TR-FRET; conditions: FXR LBD (amino acids 244-476) with labeled SRC-1 domain, 25° C. for 60 minutes, activity relative to CDCA maximum; read-out: EC50 FXR- Biochemical TR-FRET/μM
ligand binding domain (LBD) of recombinant human FXR, sequence (Q96RI1 254-486): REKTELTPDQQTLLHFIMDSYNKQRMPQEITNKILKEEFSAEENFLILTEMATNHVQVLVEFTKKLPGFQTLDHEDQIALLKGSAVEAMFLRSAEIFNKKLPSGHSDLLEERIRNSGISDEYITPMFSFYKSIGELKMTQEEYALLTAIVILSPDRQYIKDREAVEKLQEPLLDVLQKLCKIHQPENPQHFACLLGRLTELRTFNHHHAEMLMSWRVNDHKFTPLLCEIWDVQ
ligand binding domain (LBD) of recombinant human FXR, sequence (Q15788 whole entry partner, the tested form may be a part): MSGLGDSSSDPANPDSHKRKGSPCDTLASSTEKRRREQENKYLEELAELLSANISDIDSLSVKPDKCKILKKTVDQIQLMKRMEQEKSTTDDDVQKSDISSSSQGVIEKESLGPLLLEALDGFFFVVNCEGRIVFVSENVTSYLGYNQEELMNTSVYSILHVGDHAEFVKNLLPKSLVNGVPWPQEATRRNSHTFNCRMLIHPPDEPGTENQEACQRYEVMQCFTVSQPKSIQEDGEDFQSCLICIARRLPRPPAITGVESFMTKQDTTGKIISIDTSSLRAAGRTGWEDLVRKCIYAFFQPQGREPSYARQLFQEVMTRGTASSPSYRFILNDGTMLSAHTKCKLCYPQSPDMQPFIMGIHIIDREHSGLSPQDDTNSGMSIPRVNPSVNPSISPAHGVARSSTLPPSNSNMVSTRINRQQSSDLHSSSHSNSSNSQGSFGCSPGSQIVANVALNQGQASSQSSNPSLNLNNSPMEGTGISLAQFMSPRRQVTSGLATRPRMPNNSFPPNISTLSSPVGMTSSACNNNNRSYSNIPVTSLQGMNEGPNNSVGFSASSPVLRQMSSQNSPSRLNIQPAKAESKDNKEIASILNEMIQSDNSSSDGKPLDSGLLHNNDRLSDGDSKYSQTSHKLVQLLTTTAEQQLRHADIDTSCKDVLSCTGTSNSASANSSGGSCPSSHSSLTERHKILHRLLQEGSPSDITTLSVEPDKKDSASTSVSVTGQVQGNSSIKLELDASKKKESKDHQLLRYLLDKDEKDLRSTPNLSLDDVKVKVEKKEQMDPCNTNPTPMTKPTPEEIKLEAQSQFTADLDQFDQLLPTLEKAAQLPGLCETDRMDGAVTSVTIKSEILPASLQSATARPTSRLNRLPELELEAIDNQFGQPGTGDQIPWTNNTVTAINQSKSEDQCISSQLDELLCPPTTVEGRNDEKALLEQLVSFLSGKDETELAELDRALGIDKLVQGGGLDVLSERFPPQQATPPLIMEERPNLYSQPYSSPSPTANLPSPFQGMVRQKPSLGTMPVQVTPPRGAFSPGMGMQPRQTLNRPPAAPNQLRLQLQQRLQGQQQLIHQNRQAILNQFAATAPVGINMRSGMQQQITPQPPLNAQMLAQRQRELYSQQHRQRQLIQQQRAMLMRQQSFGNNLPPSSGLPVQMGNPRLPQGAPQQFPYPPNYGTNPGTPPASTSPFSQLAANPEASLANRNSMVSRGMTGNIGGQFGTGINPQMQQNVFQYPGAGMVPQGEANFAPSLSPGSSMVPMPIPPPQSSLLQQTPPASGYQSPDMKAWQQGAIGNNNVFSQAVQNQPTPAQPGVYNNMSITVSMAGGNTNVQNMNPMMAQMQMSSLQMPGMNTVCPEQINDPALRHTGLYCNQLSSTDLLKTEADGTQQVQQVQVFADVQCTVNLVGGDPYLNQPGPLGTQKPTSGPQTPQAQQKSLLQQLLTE
Summary of the method: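 Purified SF9-expressed FXR LBD (aa 244-476) was incubated with compounds (0-10 micromolar) and labeled SRC-1 interaction domain in TR-FRET coregulator buffer G, 60 min at 25° C, 1.2% DMSO. Activity at each concentration was taken as percent of maximal CDCA response to build dose-response curves.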

SMILES | EC50 [1] | EC50 [2]
O=c1[nH]nc(-c2ccc(N3[C@@H]4CC[C@H]3C[C@@H](OCc3c(-c5ccccc5OC(F)(F)F)noc3C3CC3)C4)nc2)o1 [Example 68, 5-(6-((1R,3r,5S)-3-((5-cyclopropyl-3-(2-(trifluoromethoxy)phenyl)isoxazol-4-yl)methoxy)-8-azabicyclo[3.2.1]octan-8-yl)pyridin-3-yl)-1,3,4-oxadiazol-2(3H)-one] | 168 nM | 0.0264 µM
O=c1[nH]c(-c2cccc(N3CCC(OCc4c(-c5c(Cl)cccc5Cl)noc4C4CC4)CC3)c2)no1 [Example 7, 3-(3-(4-((5-cyclopropyl-3-(2,6-dichlorophenyl)isoxazol-4-yl)methoxy)piperidin-1-yl)phenyl)-1,2,4-oxadiazol-5(4H)-one] | 1230 nM | 0.105 µM
O=c1[nH]c(-c2ccc(N3CCC(OCc4c(-c5ccccc5Cl)noc4C4CC4)CC3)cc2)no1 [Example 44, 3-(4-(4-((3-(2-chlorophenyl)-5-cyclopropylisoxazol-4-yl)methoxy)piperidin-1-yl)phenyl)-1,2,4-oxadiazol-5(4H)-one] | 371 nM | 0.0213 µM
O=c1[nH]nc(-c2ccc(N3CCC(OCc4c(-c5ccccc5OC(F)(F)F)noc4C4CC4)CC3)cc2)c(=O)[nH]1 [Example 57, 6-(4-(4-((5-cyclopropyl-3-(2-(trifluoromethoxy)phenyl)isoxazol-4-yl)methoxy)piperidin-1-yl)phenyl)-1,2,4-triazine-3,5(2H,4H)-dione] | 497 nM | 0.0847 µM
O=c1[nH]c(-c2ccc(N3CCC(OCc4c(-c5c(Cl)cccc5Cl)noc4C4CC4)CC3)cc2)no1 [Example 3, 3-(4-(4-((5-cyclopropyl-3-(2,6-dichlorophenyl)isoxazol-4-yl)methoxy)piperidin-1-yl)phenyl)-1,2,4-oxadiazol-5(4H)-one] | 97 nM and 49.8 nM | 0.0036 µM and 0.0029 µM
O=c1[nH]nc(-c2ccc(N3CCC(OCc4c(-c5c(Cl)cccc5Cl)noc4C4CC4)CC3)cc2)o1 [Example 12, 5-(4-(4-((5-cyclopropyl-3-(2,6-dichlorophenyl)isoxazol-4-yl)methoxy)piperidin-1-yl)phenyl)-1,3,4-oxadiazol-2(3H)-one] | 437 nM | 0.0737 µM
O=c1[nH]c(-c2ccc(N3CCCC(OCc4c(-c5ccccc5OC(F)(F)F)noc4C4CC4)CC3)cc2)no1 (stereo not drawn) [Example 47, 3-(4-(4-((5-cyclopropyl-3-(2-(trifluoromethoxy)phenyl)isoxazol-4-yl)methoxy)azepan-1-yl)phenyl)-1,2,4-oxadiazol-5(4H)-one] | 76.7 nM | 0.0037 µM
COc1cccc(F)c1-c1noc(C2CC2)c1COC1CCN(c2ccc(-c3noc(=O)[nH]3)cc2)CC1 [Example 28, 3-(4-(4-((5-cyclopropyl-3-(2-fluoro-6-methoxyphenyl)isoxazol-4-yl)methoxy)piperidin-1-yl)phenyl)-1,2,4-oxadiazol-5(4H)-one] | 1610 nM | 0.149 µM
Clc1cccc(Cl)c1-c1noc(C2CC2)c1COC1CCN(c2ccc(C3=NN3)cc2)CC1 [Example 2, 4-(((1-(4-(1H-diazirin-3-yl)phenyl)piperidin-4-yl)oxy)methyl)-5-cyclopropyl-3-(2,6-dichlorophenyl)isoxazole] | 691 nM | 2.89 µM
O=c1[nH]c(-c2ccc(N3CCC(OCc4c(-c5ccccc5OC(F)(F)F)noc4C4CC4)C(F)(F)C3)cc2)no1 (stereo not drawn) [Example 54, 3-(4-(4-((5-cyclopropyl-3-(2-(trifluoromethoxy)phenyl)isoxazol-4-yl)methoxy)-3,3-difluoropiperidin-1-yl)phenyl)-1,2,4-oxadiazol-5(4H)-one] | 715 nM | 0.0376 µM
O=c1[nH]c(-c2ccc(N3CCC(OCc4c(-c5c(Cl)cccc5Cl)noc4C4CC4)C(F)(F)C3)cc2)no1 (stereo not drawn) [Example 53, 3-(4-(4-((5-cyclopropyl-3-(2,6-dichlorophenyl)isoxazol-4-yl)methoxy)-3,3-difluoropiperidin-1-yl)phenyl)-1,2,4-oxadiazol-5(4H)-one] | 94.3 nM | 0.009 µM
CCOc1cccc(F)c1-c1noc(C2CC2)c1COC1CCN(c2ccc(-c3noc(=O)[nH]3)cc2)CC1 [Example 27, 3-(4-(4-((5-cyclopropyl-3-(2-ethoxy-6-fluorophenyl)isoxazol-4-yl)methoxy)piperidin-1-yl)phenyl)-1,2,4-oxadiazol-5(4H)-one] | 960 nM | 0.227 µM
O=c1[nH]c(-c2ccc(N3CCC(OCc4c(-c5c(F)cccc5F)noc4C4CC4)C(F)(F)C3)nc2)no1 (stereo not drawn) [Example 63, 3-(6-(4-((5-cyclopropyl-3-(2,6-difluorophenyl)isoxazol-4-yl)methoxy)-3,3-difluoropiperidin-1-yl)pyridin-3-yl)-1,2,4-oxadiazol-5(4H)-one] | 2660 nM | 0.215 µM
O=c1cc(-c2ccc(N3[C@@H]4CC[C@H]3C[C@@H](OCc3c(-c5ccccc5OC(F)(F)F)noc3C3CC3)C4)nc2)o[nH]1 [Example 69, 5-(6-((1R,3r,5S)-3-((5-cyclopropyl-3-(2-(trifluoromethoxy)phenyl)isoxazol-4-yl)methoxy)-8-azabicyclo[3.2.1]octan-8-yl)pyridin-3-yl)isoxazol-3(2H)-one] | 57.6 nM | 0.0095 µM
O=c1[nH]nc(-c2ccc(N3CCC(OCc4c(-c5c(Cl)cccc5Cl)noc4C4CC4)CC3)nc2)o1 [Example 37, 5-(6-(4-((5-cyclopropyl-3-(2,6-dichlorophenyl)isoxazol-4-yl)methoxy)piperidin-1-yl)pyridin-3-yl)-1,3,4-oxadiazol-2(3H)-one] | 274 nM | 0.0494 µM
O=c1[nH]c(-c2ccc(N3CCC(OCc4c(-c5c(F)cccc5F)noc4C4CC4)CC3)nc2)no1 [Example 74, 3-(6-(4-((5-cyclopropyl-3-(2,6-difluorophenyl)isoxazol-4-yl)methoxy)piperidin-1-yl)pyridin-3-yl)-1,2,4-oxadiazol-5(4H)-one] | 1450 nM | 0.107 µM
O=c1[nH]c(-c2ccc(N3CCC(OCc4c(-c5c(Cl)cccc5Cl)noc4C4CC4)CC3)s2)no1 [Example 35, 3-(5-(4-((5-cyclopropyl-3-(2,6-dichlorophenyl)isoxazol-4-yl)methoxy)piperidin-1-yl)thiophen-2-yl)-1,2,4-oxadiazol-5(4H)-one] | 324 nM | 0.0435 µM
O=c1[nH]c(-c2cc(N3CCC(OCc4c(-c5c(Cl)cccc5Cl)noc4C4CC4)CC3)n[nH]2)no1 [Example 58, 3-(3-(4-((5-cyclopropyl-3-(2,6-dichlorophenyl)isoxazol-4-yl)methoxy)piperidin-1-yl)-1H-pyrazol-5-yl)-1,2,4-oxadiazol-5(4H)-one] | 11700 nM | 0.421 µM
O=c1[nH]c(-c2ccc(N3CCCC(OCc4c(-c5c(Cl)cccc5Cl)noc4C4CC4)CC3)cc2)no1 (stereo not drawn) [Example 18, 3-(4-(4-((5-cyclopropyl-3-(2,6-dichlorophenyl)isoxazol-4-yl)methoxy)azepan-1-yl)phenyl)-1,2,4-oxadiazol-5(4H)-one] | 18.4 nM | 0.0029 µM
O=c1[nH]nc(-c2ccc(N3[C@@H]4CC[C@H]3C[C@@H](OCc3c(-c5ccccc5OC(F)(F)F)noc3C3CC3)C4)cc2)c(=O)[nH]1 [Example 67, 6-(4-((1R,3r,5S)-3-((5-cyclopropyl-3-(2-(trifluoromethoxy)phenyl)isoxazol-4-yl)methoxy)-8-azabicyclo[3.2.1]octan-8-yl)phenyl)-1,2,4-triazine-3,5(2H,4H)-dione] | 65.7 nM | 0.0127 µM
C[C@@H]1C[C@@H](OCc2c(-c3c(Cl)cccc3Cl)noc2C2CC2)CCN1c1ccc(-c2noc(=O)[nH]2)cc1 [Example 21, 3-(4-((2R,4S)-4-((5-cyclopropyl-3-(2,6-dichlorophenyl)isoxazol-4-yl)methoxy)-2-methylpiperidin-1-yl)phenyl)-1,2,4-oxadiazol-5(4H)-one] | 343 nM | 0.0793 µM
O=c1[nH]c(-c2ccc(N3CCC(OCc4c(-c5c(Cl)cccc5Cl)noc4C4CC4)CC3)cc2Cl)no1 [Example 14, 3-(2-chloro-4-(4-((5-cyclopropyl-3-(2,6-dichlorophenyl)isoxazol-4-yl)methoxy)piperidin-1-yl)phenyl)-1,2,4-oxadiazol-5(4H)-one] | 64 nM | 0.0085 µM
O=c1[nH]nc(-c2ccc(N3[C@@H]4CC[C@H]3C[C@@H](OCc3c(-c5ccccc5OC(F)(F)F)noc3C3CC3)C4)cc2)o1 [Example 65, 5-(4-((1R,3r,5S)-3-((5-cyclopropyl-3-(2-(trifluoromethoxy)phenyl)isoxazol-4-yl)methoxy)-8-azabicyclo[3.2.1]octan-8-yl)phenyl)-1,3,4-oxadiazol-2(3H)-one] | 954 nM | 0.0221 µM
C[C@@H]1CN(c2ccc(-c3noc(=O)[nH]3)cc2)CC[C@@H]1OCc1c(-c2c(Cl)cccc2Cl)noc1C1CC1 [Example 31, 3-(4-((3R,4S)-4-((5-cyclopropyl-3-(2,6-dichlorophenyl)isoxazol-4-yl)methoxy)-3-methylpiperidin-1-yl)phenyl)-1,2,4-oxadiazol-5(4H)-one] | 271 nM | 0.045 µM
